Laboratory results as given in PubChem BioAssay AID1963869 (Molecular Pharmacology Branch, DTP, NCI, 2024).
“And” between values parts separate entries of the source, which are not always exact repeats. Identical values can stand only once.

Tested on: KRAS patient-derived spheroids with HUVEC/MSC, viability
Assay: Anticancer human tumor 323965-272-R-J2-PDC patient-derived pancreatic carcinoma cell line growth inhibition [KRAS2]
Conditions: for viability, T/C: stronger effect = lower value
Excerpt: Multicellular complex tumor spheroid response to RAS pathway inhibitors in combination with a targeted agents in patient-derived cell lines with oncogenic KRAS variants from multiple cancer types
A high-throughput screen of multi-cell type tumor spheroids was designed to identify active combinations of targeted small molecules and KRAS pathway inhibitors. Complex spheroids include a stromal component modeled by human endothelial cells (HUVEC) and fibroblasts modeled by human mesenchymal stem cells (MSCs). The concentration ranges selected for each drug and investigational agent were based upon clinically achievable concentrations if the clinical Cmax of the agent was known.
Compounds. The drugs and investigational agents: BI-3406 (NSC825286), BAY-293 (NSC824723), batoprotafib (TNO155; NSC825523), sotorasib (AMG 510; NSC818433), MRTX1257 (NSC819558), elimusertib (BAY 1895344; NSC800525), molibresib (GSK525762; NSC774829), temuterkib (LY3214996; NSC803410), venetoclax (NSC766270), alisertib (NSC759677), olaparib (NSC753686), talazoparib (NSC767125), erdafitinib (NSC781556), ipatasertib (NSC767898), cabozantinib (NSC761068), nintedanib (NSC756659), abemaciclib (NSC768073), docetaxel (NSC628503), trametinib (NSC758246), and sapanisertib (NSC764658) were obtained from the National Cancer Institute (NCI) Developmental Therapeutics Program Chemical Repository. The FDA-approved anticancer drug set is available from the Developmental Therapeutics Program. […] The stock solutions were prepared in dimethyl sulfoxide (DMSO, Sigma-Aldrich, St. Louis, MO, cat. D2650) at 800-fold the tested concentration and stored at -70 degrees C prior to their use. All drugs and investigational agents were tested over a range starting from a high concentration at or near the clinical Cmax and decreasing in half-log increments. If the clinical Cmax for an agent had not been determined, the highest concentration tested was 10 microM.
Cell Culture. All cells were maintained in an incubator at 37 degrees C and 5% CO2 with 95% humidity. The PDC lines were cultured according to standard operating procedures established by the NCI PDMR (https://pdmr.cancer.gov/sops/default.htm). Briefly, all PDCs were thawed and cultured in Matrigel-coated flasks prepared with a working solution of 1X Ham's F-12 nutrient mix, without supplementation (Invitrogen, Waltham, MA, cat. 11765054), 100 U/mL penicillin-streptomycin (Invitrogen, cat. 15140122), and 2.5% Matrigel (Corning Inc., Corning, NY, cat. 354248) for the first three passages. All PDCs were cultured in complete DMEM/F-12 media containing advanced DMEM/F-12 (Invitrogen, cat. 12634028), 4.9% defined fetal bovine serum, heat inactivated (HyClone Laboratories Inc., Logan, UT, cat. SH30070.03HI), 389 ng/mL hydrocortisone (Sigma-Aldrich, cat. H4001), 9.7 ng/mL human EGF recombinant protein (Invitrogen, cat. PHG0313), 23.4 microg/mL adenine (Sigma-Aldrich, cat. A2786), 97.3 U/mL penicillin-streptomycin (Invitrogen, cat. 15140122), 1.9 mM L-glutamine (Invitrogen, cat. 25030081), and 9.7 microM Y-27632 dihydrochloride (Tocris Bioscience, Bristol, United Kingdom, cat. 1254). The PDCs were cultured in complete DMEM/F12 media without 9.7 microM Y-27632 dihydrochloride for at least two passages prior to the screen. The established cell line HOP-62 was cultured in RPMI 1640 medium, HEPES (Invitrogen, cat. 22400105) with 10% defined fetal bovine serum (HyClone Laboratories Inc., cat. SH30070.03) and 2 mM L-glutamine (Invitrogen, cat. 25030081). The pooled donor HUVEC were cultured in endothelial cell growth medium 2 (PromoCell, Heidelberg, Germany, cat. C-22011) and the hMSC were cultured in mesenchymal stem cell growth medium 2 (PromoCell, cat. C-28009). For all experiments, HUVEC and hMSC were used at passages </=5, while the malignant cell lines were used at passages </=15. […]

[1] = compound alone, run of 08/19/2021
[2] = compound alone, run of 08/26/2021
[3] = compound alone, run of 09/02/2021
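Note: spheroids exposed to agents for 7 days.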
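Throughout, for viability, T/C: 100% = DMSO vehicle control viability.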

SMILES: C=CC(=O)N1CCN(c2nc(=O)n(-c3c(C)ccnc3C(C)C)c3nc(-c4c(O)cccc4F)c(F)cc23)C(C)C1 (stereo unspecified)
- viability, T/C (compound 0.1 µM): 58.9% [middle of 17 runs]
- viability, T/C (compound 0.316 µM): 58.4% [middle of 17 runs]
- viability, T/C (compound 1 µM): 59.1% [middle of 17 runs]
- viability, T/C (compound 3.16 µM): 60.4% [middle of 17 runs]
- viability, T/C (compound 10 µM): 52% [middle of 17 runs]
- IC50 [1]: > 10 µM and 2.73 µM
- IC50 [2]: > 10 µM and 7.82 µM and 9.64 µM
- IC50 [3]: > 10 µM

SMILES: CC(C)NCC(C(=O)N1CCN(c2ncnc3c2C(C)CC3O)CC1)c1ccc(Cl)cc1 (stereo unspecified)
- viability, T/C (compound 0.0316 µM): 97.7% [middle of 5 runs]
- viability, T/C (compound 0.1 µM): 94% [middle of 5 runs]
- viability, T/C (compound 0.316 µM): 84.9% [middle of 5 runs]
- viability, T/C (compound 1 µM): 64.6% [middle of 5 runs]
- viability, T/C (compound 3.16 µM): 50.4% [middle of 5 runs]
- viability, T/C (compound 10 µM): 41.8% [middle of 5 runs]
- IC50 (curve of compound): 2.93 µM [middle of 5 runs]

SMILES: CC1(C)CCC(CN2CCN(c3ccc(C(=O)NS(=O)(=O)c4ccc(NCC5CCOCC5)c([N+](=O)[O-])c4)c(Oc4cnc5[nH]ccc5c4)c3)CC2)=C(c2ccc(Cl)cc2)C1
- viability, T/C (compound 0.0316 µM): 100% [middle of 5 runs]
- viability, T/C (compound 0.1 µM): 94.9% [middle of 5 runs]
- viability, T/C (compound 0.316 µM): 98% [middle of 5 runs]
- viability, T/C (compound 1 µM): 96.1% [middle of 5 runs]
- viability, T/C (compound 3.16 µM): 21% [middle of 5 runs]
- viability, T/C (compound 10 µM): 7.62% [middle of 5 runs]
- IC50 (curve of compound): 1.99 µM [middle of 5 runs]

SMILES: CNCc1ccccc1-c1csc(C(C)Nc2nc(C)nc3cc(OC)c(OC)cc23)c1 (stereo unspecified)
- viability, T/C (compound 0.316 µM): 89.6% [middle of 16 runs]
- viability, T/C (compound 1 µM): 89.2% [middle of 16 runs]
- IC50 [2]: 5.39 µM [middle of 4 runs]
- IC50 [3]: 4.96 µM [middle of 6 runs]

SMILES: COC(=O)c1ccc2c(C(=Nc3ccc(N(C)C(=O)CN4CCN(C)CC4)cc3)c3ccccc3)c(O)[nH]c2c1
- viability, T/C (compound 0.0316 µM): 97.4% [middle of 5 runs]
- viability, T/C (compound 0.1 µM): 102% [middle of 5 runs]
- viability, T/C (compound 0.316 µM): 101% [middle of 5 runs]
- viability, T/C (compound 1 µM): 98% [middle of 5 runs]
- viability, T/C (compound 3.16 µM): 98.7% [middle of 5 runs]
- IC50 (curve of compound): 7.38 µM and > 10 µM and 7.57 µM

SMILES: COc1cc(Nc2ncc3c(n2)-c2ccc(Cl)cc2C(c2c(F)cccc2OC)=NC3)ccc1C(=O)O
- viability, T/C (compound 0.0316 µM): 91.7% [middle of 5 runs]
- viability, T/C (compound 0.1 µM): 72.2% [middle of 5 runs]
- viability, T/C (compound 0.316 µM): 45.2% [middle of 5 runs]
- viability, T/C (compound 1 µM): 51.5% [middle of 5 runs]
- viability, T/C (compound 3.16 µM): 65.7% [middle of 5 runs]
- viability, T/C (compound 10 µM): 69% [middle of 5 runs]
- IC50 (curve of compound): 10 µM and > 10 µM

SMILES: COc1cc(OC)cc(N(CCNC(C)C)c2ccc3ncc(-c4cnn(C)c4)nc3c2)c1
- viability, T/C (compound 0.0316 µM): 102% [middle of 5 runs]
- viability, T/C (compound 0.1 µM): 101% [middle of 5 runs]
- viability, T/C (compound 0.316 µM): 102% [middle of 5 runs]
- viability, T/C (compound 1 µM): 103% [middle of 5 runs]
- viability, T/C (compound 3.16 µM): 105% [middle of 5 runs]
- viability, T/C (compound 10 µM): 87.5% [middle of 5 runs]
- IC50 (curve of compound): > 10 µM

SMILES: COc1cc2nc(C)nc(NC(C)c3cc(N)cc(C(F)(F)F)c3)c2cc1OC1CCOC1 (stereo unspecified)
- viability, T/C (compound 0.316 µM): 75.7% [middle of 17 runs]
- viability, T/C (compound 3.16 µM): 77.2% [middle of 17 runs]
- IC50 [1]: > 10 µM
- IC50 [2]: > 10 µM
- IC50 [3]: > 10 µM
